Measurements taken from patent US8791132B2, “Compounds and methods for treatment of hypertension” (Medivation Technologies, Inc., priority 2011, dated 2014).
Several values for one entry are separate records, joined by “and”; a condition that tells them apart may be missing. Equal values may be shown once. Read-outs that look alike come from different tables or passages of the source.

Experiments:
[1] = biological target: T1, human recombinant adrenergic α2B receptor (Homo sapiens, UniProt P18089); assay: Radioligand binding, adrenergic α2B ([3H]Rauwolscine); details: for Percentage inhibition of ligand binding, Adrenergic α2B (0.03 μM) / Percentage inhibition of ligand binding, Adrenergic α2B: 0.03 µM
T1 construct: expressed in transfected cells; host or cells: CHO-K1
T1 sequence (P18089 1-450): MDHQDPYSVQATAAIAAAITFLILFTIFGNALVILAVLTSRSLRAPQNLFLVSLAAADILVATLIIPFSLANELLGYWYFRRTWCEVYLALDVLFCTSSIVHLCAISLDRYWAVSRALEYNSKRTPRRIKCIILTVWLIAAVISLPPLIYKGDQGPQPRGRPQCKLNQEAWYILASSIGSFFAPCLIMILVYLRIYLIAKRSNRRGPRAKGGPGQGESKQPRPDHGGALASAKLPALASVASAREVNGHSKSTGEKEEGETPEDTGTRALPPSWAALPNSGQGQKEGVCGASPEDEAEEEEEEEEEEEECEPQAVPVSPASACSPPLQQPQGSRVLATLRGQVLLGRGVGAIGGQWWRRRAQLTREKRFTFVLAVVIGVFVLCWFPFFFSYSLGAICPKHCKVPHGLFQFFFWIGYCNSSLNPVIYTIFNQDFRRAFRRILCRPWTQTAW
In short: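 Assay used CHO-K1-expressed human α2B receptor in Tris-HCl pH 7.4 buffer with MgCl2, EDTA and BSA; 60 min incubation at 25 °C.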

[2] = biological target: T2, rat adrenergic α1B receptor (Rattus norvegicus, UniProt P15823); assay: Radioligand binding, adrenergic α1B ([3H]Prazosin); details: for Percentage inhibition of ligand binding, Adrenergic α1B (0.03 μM): compound at 0.03 μM; for Percentage inhibition of ligand binding, Adrenergic α1B (0.1 μM) / Percentage inhibition of ligand binding, Adrenergic α1B: 0.1 µM
T2 construct: rat adrenergic α1B receptor obtained from Wistar Rat liver; from tissue; host or cells: Wistar rat liver
T2 sequence (P15823 1-515): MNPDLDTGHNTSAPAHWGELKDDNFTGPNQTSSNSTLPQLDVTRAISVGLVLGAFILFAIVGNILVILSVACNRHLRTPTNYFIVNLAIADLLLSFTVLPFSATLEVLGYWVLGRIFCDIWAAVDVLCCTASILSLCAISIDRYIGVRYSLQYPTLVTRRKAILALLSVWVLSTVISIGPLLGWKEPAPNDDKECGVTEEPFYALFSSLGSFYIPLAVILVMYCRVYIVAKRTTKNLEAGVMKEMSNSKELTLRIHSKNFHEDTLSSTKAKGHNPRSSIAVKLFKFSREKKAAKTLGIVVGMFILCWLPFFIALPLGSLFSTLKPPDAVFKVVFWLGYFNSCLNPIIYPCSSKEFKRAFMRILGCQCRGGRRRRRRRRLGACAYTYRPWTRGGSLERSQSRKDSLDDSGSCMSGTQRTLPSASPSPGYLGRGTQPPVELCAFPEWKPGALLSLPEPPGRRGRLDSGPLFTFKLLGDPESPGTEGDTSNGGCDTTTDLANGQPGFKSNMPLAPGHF
In short: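 Specific binding, taken as total minus that remaining with 10 μM phentolamine, is measured after filtration and counting. Rat liver receptor preparation and 0.25 nM [3H]prazosin are incubated with compound in 50 mM Tris-HCl (pH 7.4, 0.5 mM EDTA) at 25° C for 60 min. Activity is reported as percent inhibition.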

[3] = biological target: T3, human recombinant adrenergic α2A receptor (Homo sapiens, UniProt P08913); assay: Radioligand binding, adrenergic α2A ([3H]MK-912)
T3 construct: expressed in transfected cells; host or cells: insect Sf9 cells
T3 sequence (P08913 1-465): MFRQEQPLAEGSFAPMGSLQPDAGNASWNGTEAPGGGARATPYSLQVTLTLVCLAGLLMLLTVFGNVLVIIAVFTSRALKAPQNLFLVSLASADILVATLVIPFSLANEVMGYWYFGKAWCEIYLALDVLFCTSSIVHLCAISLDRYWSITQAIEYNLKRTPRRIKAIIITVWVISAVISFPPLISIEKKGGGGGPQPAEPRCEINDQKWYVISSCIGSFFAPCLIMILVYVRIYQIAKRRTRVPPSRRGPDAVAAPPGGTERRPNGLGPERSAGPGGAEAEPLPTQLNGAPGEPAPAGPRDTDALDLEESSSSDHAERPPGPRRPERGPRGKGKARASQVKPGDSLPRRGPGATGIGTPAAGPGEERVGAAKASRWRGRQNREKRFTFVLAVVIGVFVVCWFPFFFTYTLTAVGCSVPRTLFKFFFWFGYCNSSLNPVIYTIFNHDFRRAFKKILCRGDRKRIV
In short: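 Displacement of 1 nM [3H]MK-912 from receptor produced in insect Sf9 cells was measured after 60 min at 25 °C. Readout: percent inhibition of specific binding.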

[4] = 0.03 μM compound, read-out: Percentage inhibition of ligand binding, Adrenergic α2B
[5] = 0.1 μM compound, read-out: Percentage inhibition of ligand binding, Adrenergic α1B
[6] = 0.1 μM compound, read-out: Percentage inhibition of ligand binding, Adrenergic α2A
[7] = compound at 0.03 μM, [3H]Rauwolscine, repeat datapoints each shown
[8] = read-out: Percentage inhibition of ligand binding, Adrenergic α2B (0.03 μM), compound at 0.03 μM, [3H]Rauwolscine, repeat datapoints each shown
[9] = read-out: Percentage inhibition of ligand binding, Adrenergic α2B (0.1 μM), compound at 0.1 μM, [3H]Rauwolscine, repeat datapoints each shown
[10] = [3H]Prazosin, repeat datapoints each shown
[11] = compound at 0.1 μM, [3H]Prazosin, repeat datapoints each shown
[12] = compound at 0.1 μM, [3H]MK-912, repeat datapoints each shown, 0.1 µM
[13] = read-out: Percentage inhibition of ligand binding, Adrenergic α1B (0.03 μM), compound at 0.03 μM, [3H]Prazosin, repeat datapoints each shown
[14] = read-out: Percentage inhibition of ligand binding, Adrenergic α1B (0.1 μM), compound at 0.1 μM, [3H]Prazosin, repeat datapoints each shown
[15] = compound at 0.03 μM, [3H]Rauwolscine, repeat assays, each datapoint shown
[16] = compound at 0.1 μM, [3H]Prazosin, repeat assays, each datapoint shown

Compound: CCNC(Cn1c2c(c3cc(C)ccc31)CN(C)CC2)c1ccncc1 (centres unmarked) [II-8, [2-(2,8-dimethyl-1,2,3,4-tetrahydro-pyrido[4,3-b]indol-5-yl)-1-pyridin-4-yl-ethyl]-ethyl-amine]
- inhibition at 0.03 µM [1, 4]: 70%
- inhibition at 0.1 µM [2, 5]: 6%
- inhibition at 0.1 µM [3, 6]: 9%

Compound: Cc1ccc2c(c1)c1c(n2CC(OC(=O)C(C)(C)C)c2ccncc2)CCN(C)C1 (single isomer, unassigned) [130a]
- Percentage inhibition of ligand binding, Adrenergic α2B (0.03 μM) [1, 7]: 104%
- Ki ([1]; read-out: Ki α2B): 1.66 nM
- inhibition at 0.03 µM [1, 8]: 100%
- inhibition at 0.1 µM [1, 9]: 107%
- Percentage inhibition of ligand binding, Adrenergic α1B (0.03 μM) [2, 10]: 32%
- Percentage inhibition of ligand binding, Adrenergic α1B (0.1 μM) [2, 11]: 66% and 68%
- Ki [3]: 6.91 nM

Compound: Cc1ccc2c(c1)c1c(n2CC(O)c2ccc(C)nc2)CCN2CCCC12 (single isomer, unassigned) [198a, 2-(9-methyl-1,2,3,4,5,10c-hexahydro-3a,6-diaza-cyclopenta[c]fluoren-6-yl)-1-(6-methyl-pyridin-3-yl)-ethanol]
- Percentage inhibition of ligand binding, Adrenergic α2B (0.03 μM) [1, 7]: 47%
- Percentage inhibition of ligand binding, Adrenergic α1B (0.1 μM) [2, 11]: 24%
- Percentage inhibition of ligand binding, Adrenergic α2A (0.1 μM) [3, 12]: 10%

Compound: Cc1ccc2c(c1)c1c(n2CC(C)(O)c2cccnc2)CC(C)N(C)C1 (single isomer, unassigned) [II-146c, 2-(pyridin-3-yl)-1-(2,3,8-trimethyl-3,4-dihydro-1H-pyrido[4,3-b]indol-5(2H)-yl)propan-2-ol]
- Percentage inhibition of ligand binding, Adrenergic α2B (0.03 μM) [1, 7]: 42%
- Percentage inhibition of ligand binding, Adrenergic α1B (0.1 μM) [2, 11]: 17%
- Percentage inhibition of ligand binding, Adrenergic α2A (0.1 μM) [3, 12]: 8%

Compound: Cc1ccc2c(c1)c1c(n2CC(N)c2ccncc2)CCN(C)CC1 (single isomer, unassigned) [154b, 2-(3,9-dimethyl-2,3,4,5-tetrahydroazepino[4,5-b]indol-6(1H)-yl)-1-(pyridin-4-yl)ethanamine]
- Ki ([1]; Ki α2B): 3.33 nM
- Percentage inhibition of ligand binding, Adrenergic α2B (0.03 μM) [1, 7]: 83%
- inhibition at 0.03 µM [1, 8]: 80%
- inhibition at 0.1 µM [1, 9]: 95%
- inhibition at 0.03 µM [2, 13]: 80%
- inhibition at 0.1 µM [2, 14]: 95%
- inhibition at 0.1 µM ([3]; read-out: Percentage inhibition of ligand binding, Adrenergic α2A (0.1 μM), compound at 0.1 μM, [3H]MK-912, repeat datapoints each shown): 5%

Compound: CN1CCc2c(c3cccc(Cl)c3n2CC(C)(O)c2cccnc2)C1 (single isomer, unassigned) [57a, 1-(6-chloro-2-methyl-1,2,3,4-tetrahydro-pyrido[4,3-b]indol-5-yl)-2-pyridin-3-yl-propan-2-ol]
- Percentage inhibition of ligand binding, Adrenergic α2B [1, 15]: 16%
- Percentage inhibition of ligand binding, Adrenergic α1B [2, 16]: 3%
- inhibition at 0.1 µM ([3]; compound at 0.1 μM, [3H]MK-912, repeat assays, each datapoint shown, read-out: Percentage inhibition of ligand binding, Adrenergic α2A): 22%

Compound: Cc1ccc2c(c1)c1c(n2CC(O)c2ccncc2)CCN2CCCC12 (single isomer, unassigned) [129c]
- Ki ([1]; read-out: Ki α2B): 0.77 nM
- inhibition at 0.03 µM [1, 8]: 100%
- Percentage inhibition of ligand binding, Adrenergic α1B (0.1 μM) [2, 11]: 96%
- inhibition at 0.03 µM [2, 13]: 86%
- inhibition at 0.1 µM [2, 14]: 94%
- Ki [3]: 88.6 nM

Compound: Cc1ccc(C(C)(O)Cn2c3c(c4cc(Cl)ccc42)CN(C)CC3)cn1 (single isomer, unassigned) [93a]
- Percentage inhibition of ligand binding, Adrenergic α2B (0.03 μM) [1, 7]: 63% and 102%
- Ki ([1]; read-out: Ki α2B): 1.14 nM
- Percentage inhibition of ligand binding, Adrenergic α1B (0.1 μM) [2, 11]: 37%
- inhibition at 0.03 µM [2, 13]: 13%
- Ki [3]: 90.5 nM
- Percentage inhibition of ligand binding, Adrenergic α2A (0.1 μM) [3, 12]: 25% and 36%
- inhibition at 0.03 µM ([3]; read-out: Percentage inhibition of ligand binding, Adrenergic α2A (0.03 μM), compound at 0.03 μM, [3H]MK-912, repeat datapoints each shown): 14%

Compound: COc1cccc2c3c(n(CC(O)c4ccncc4)c12)CCN(C)C3 (single isomer, unassigned) [44b, 2-(6-methoxy-2-methyl-3,4-dihydro-1H-pyrido[4,3-b]indol-5(2H)-yl)-1-(pyridin-4-yl)ethanol]
- Percentage inhibition of ligand binding, Adrenergic α2B [1, 15]: 75%
- Percentage inhibition of ligand binding, Adrenergic α1B [2, 16]: 18%
- Percentage inhibition of ligand binding, Adrenergic α2A ([3]; compound at 0.1 μM, [3H]MK-912, repeat assays, each datapoint shown, 0.1 µM): 1%

Compound: Cc1ccc2c(c1)c1c(n2CC(C)(OC(=O)C(C)(C)C)c2cccnc2)CCN(C)C1 (single isomer, unassigned) [II-16b, 2,2-dimethyl-propionic acid 2-(2,8-dimethyl-1,2,3,4-tetrahydro-pyrido[4,3-b]indol-5-yl)-1-methyl-1-pyridin-3-yl-ethyl ester]
- Percentage inhibition of ligand binding, Adrenergic α2B ([1]; 0.03 μM compound): 73%
- inhibition at 0.03 µM [1, 4]: 65%
- inhibition at 0.1 µM ([1]; 0.1 μM compound, read-out: Percentage inhibition of ligand binding, Adrenergic α2B): 88%
- Ki ([1]; read-out: Ki α2B): 5.58 nM
- inhibition at 0.03 µM ([2]; 0.03 μM compound, read-out: Percentage inhibition of ligand binding, Adrenergic α1B): 16%
- Percentage inhibition of ligand binding, Adrenergic α1B ([2]; 0.1 μM compound): 46%
- inhibition at 0.1 µM [2, 5]: 32%
- inhibition at 0.1 µM [3, 6]: 32%

Compound: Cc1ccc2c(c1)c1c(n2CC(OC(=O)C(C)(C)C)c2ccncc2)CCN(C)C1 (single isomer, unassigned) [130b]
- Ki ([1]; read-out: Ki α2B): 2.52 nM
- Percentage inhibition of ligand binding, Adrenergic α1B (0.03 μM) [2, 10]: 2%
- Percentage inhibition of ligand binding, Adrenergic α1B (0.1 μM) [2, 11]: 8% and 11%
- Ki [3]: 72.6 nM
- Percentage inhibition of ligand binding, Adrenergic α2A (0.03 μM) ([3]; compound at 0.03 μM, [3H]MK-912, repeat datapoints each shown, 0.03 µM): 13%
- Percentage inhibition of ligand binding, Adrenergic α2A (0.1 μM) [3, 12]: 31%
